From ChEMBL document CHEMBL5634161, “Discovery of benzamide-based PI3K/HDAC dual inhibitors with marked pro-apoptosis activity in lymphoma cells” (Eur J Med Chem, 2023)

What was measured:
[1] = biological target: Phosphatidylinositol 4,5-bisphosphate 3-kinase catalytic subunit alpha isoform (Homo sapiens, UniProt P42336); test: Inhibition of PI3Kalpha (unknown origin) using PIP2 as substrate incubated for 1 hrs in presence of ATP by ADP-Glo kinase assay
[2] = tested on: MM1.S; test: Antiproliferative activity against human MM1.S cells incubated for 48 hrs by resazurin dye based fluorescence micro plate reader analysis; format: functional, cell-based
[3] = tested on: JeKo-1; test: Antiproliferative activity against human JeKo-1 cells incubated for 48 hrs by resazurin dye based fluorescence micro plate reader analysis; format: functional, cell-based; conditions: JeKo-1, 48 h
[4] = tested on: HL-60; test: Antiproliferative activity against human HL-60 cells incubated for 48 hrs by resazurin dye based fluorescence micro plate reader analysis; format: functional, cell-based; conditions: HL-60, 48 h
[5] = tested on: MDA-MB-231; test: Antiproliferative activity against human MDA-MB-231 cells incubated for 48 hrs by resazurin dye based fluorescence micro plate reader analysis; format: functional, cell-based; conditions: MDA-MB-231, 48 h
[6] = Cytotoxicity against human HL7702 cells incubated for 48 hrs by resazurin dye based fluorescence micro plate reader analysis; format: toxicity, cell-based; conditions: HL7702 (L02) cells
[7] = tested on: JeKo-1; test: Induction of apoptosis in human JeKo-1 cells assessed as viable cells at 0.25 uM incubated for 48 hrs by Annexin-V/FITC and PI staining based flow cytometric analysis (reference value: 94.1%); format: functional; conditions: read-out: Activity
[8] = tested on: JeKo-1; test: Induction of apoptosis in human JeKo-1 cells assessed as early apoptotic cells at 0.25 uM incubated for 48 hrs by Annexin-V/FITC and PI staining based flow cytometric analysis (reference value: […]); format: functional
[9] = tested on: JeKo-1; test: Induction of apoptosis in human JeKo-1 cells assessed as late apoptotic cells at 0.25 uM incubated for 48 hrs by Annexin-V/FITC and PI staining based flow cytometric analysis (reference value: 3.66%); format: functional
[10] = tested on: JeKo-1; test: Induction of apoptosis in human JeKo-1 cells assessed as necrotic cells at 0.25 uM incubated for 48 hrs by Annexin-V/FITC and PI staining based flow cytometric analysis (reference value: 1.05%); format: functional
[11] = tested on: JeKo-1; test: Induction of apoptosis in human JeKo-1 cells assessed as viable cells at 0.5 uM incubated for 48 hrs by Annexin-V/FITC and PI staining based flow cytometric analysis (reference value: 94.1%); format: functional; conditions: read-out: Activity
[12] = tested on: JeKo-1; test: Induction of apoptosis in human JeKo-1 cells assessed as early apoptotic cells at 0.5 uM incubated for 48 hrs by Annexin-V/FITC and PI staining based flow cytometric analysis (reference value: […]); format: functional
[13] = tested on: JeKo-1; test: Induction of apoptosis in human JeKo-1 cells assessed as late apoptotic cells at 0.5 uM incubated for 48 hrs by Annexin-V/FITC and PI staining based flow cytometric analysis (reference value: 3.66%); format: functional
[14] = tested on: JeKo-1; test: Induction of apoptosis in human JeKo-1 cells assessed as necrotic cells at 0.5 uM incubated for 48 hrs by Annexin-V/FITC and PI staining based flow cytometric analysis (reference value: 1.05%); format: functional
[15] = tested on: JeKo-1; test: Induction of apoptosis in human JeKo-1 cells assessed as viable cells at 1 uM incubated for 48 hrs by Annexin-V/FITC and PI staining based flow cytometric analysis (reference value: 94.1%); format: functional; conditions: read-out: Activity
[16] = tested on: JeKo-1; test: Induction of apoptosis in human JeKo-1 cells assessed as early apoptotic cells at 1 uM incubated for 48 hrs by Annexin-V/FITC and PI staining based flow cytometric analysis (reference value: […]); format: functional
[17] = tested on: JeKo-1; test: Induction of apoptosis in human JeKo-1 cells assessed as late apoptotic cells at 1 uM incubated for 48 hrs by Annexin-V/FITC and PI staining based flow cytometric analysis (reference value: 3.66%); format: functional
[18] = tested on: JeKo-1; test: Induction of apoptosis in human JeKo-1 cells assessed as necrotic cells at 1 uM incubated for 48 hrs by Annexin-V/FITC and PI staining based flow cytometric analysis (reference value: 1.05%); format: functional
[19] = tested on: JeKo-1; test: Synergistic antiproliferative activity against human JeKo-1 cells assessed as combination index at 5 uM incubated for 48 hrs in presence of 5 uM 4-(3-(4-(4-methoxy-6-morpholino-1,3,5-triazin-2-yl)phenyl)urea)-N-(2-ethylamino)ethylbenzamide by resazurin dye based fluorescence microplate reader analysis; format: functional
[20] = tested on: JeKo-1; test: Synergistic antiproliferative activity against human JeKo-1 cells assessed as combination index at 2.5 uM incubated for 48 hrs in presence of 5 uM 4-(3-(4-(4-methoxy-6-morpholino-1,3,5-triazin-2-yl)phenyl)urea)-N-(2-ethylamino)ethylbenzamide by resazurin dye based fluorescence microplate reader analysis; format: functional
[21] = tested on: JeKo-1; test: Synergistic antiproliferative activity against human JeKo-1 cells assessed as combination index at 1.25 uM incubated for 48 hrs in presence of 5 uM 4-(3-(4-(4-methoxy-6-morpholino-1,3,5-triazin-2-yl)phenyl)urea)-N-(2-ethylamino)ethylbenzamide by resazurin dye based fluorescence microplate reader analysis; format: functional
[22] = tested on: JeKo-1; test: Synergistic antiproliferative activity against human JeKo-1 cells assessed as combination index at 0.625 uM incubated for 48 hrs in presence of 5 uM 4-(3-(4-(4-methoxy-6-morpholino-1,3,5-triazin-2-yl)phenyl)urea)-N-(2-ethylamino)ethylbenzamide by resazurin dye based fluorescence microplate reader analysis; format: functional
[23] = tested on: JeKo-1; test: Synergistic antiproliferative activity against human JeKo-1 cells assessed as combination index at 5 uM incubated for 48 hrs in presence of 2.5 uM 4-(3-(4-(4-methoxy-6-morpholino-1,3,5-triazin-2-yl)phenyl)urea)-N-(2-ethylamino)ethylbenzamide by resazurin dye based fluorescence microplate reader analysis; format: functional
[24] = tested on: JeKo-1; test: Synergistic antiproliferative activity against human JeKo-1 cells assessed as combination index at 2.5 uM incubated for 48 hrs in presence of 2.5 uM 4-(3-(4-(4-methoxy-6-morpholino-1,3,5-triazin-2-yl)phenyl)urea)-N-(2-ethylamino)ethylbenzamide by resazurin dye based fluorescence microplate reader analysis; format: functional
[25] = tested on: JeKo-1; test: Synergistic antiproliferative activity against human JeKo-1 cells assessed as combination index at 1.25 uM incubated for 48 hrs in presence of 2.5 uM 4-(3-(4-(4-methoxy-6-morpholino-1,3,5-triazin-2-yl)phenyl)urea)-N-(2-ethylamino)ethylbenzamide by resazurin dye based fluorescence microplate reader analysis; format: functional
[26] = tested on: JeKo-1; test: Synergistic antiproliferative activity against human JeKo-1 cells assessed as combination index at 0.625 uM incubated for 48 hrs in presence of 2.5 uM 4-(3-(4-(4-methoxy-6-morpholino-1,3,5-triazin-2-yl)phenyl)urea)-N-(2-ethylamino)ethylbenzamide by resazurin dye based fluorescence microplate reader analysis; format: functional
[27] = tested on: JeKo-1; test: Synergistic antiproliferative activity against human JeKo-1 cells assessed as combination index at 5 uM incubated for 48 hrs in presence of 1.25 uM 4-(3-(4-(4-methoxy-6-morpholino-1,3,5-triazin-2-yl)phenyl)urea)-N-(2-ethylamino)ethylbenzamide by resazurin dye based fluorescence microplate reader analysis; format: functional
[28] = tested on: JeKo-1; test: Synergistic antiproliferative activity against human JeKo-1 cells assessed as combination index at 2.5 uM incubated for 48 hrs in presence of 1.25 uM 4-(3-(4-(4-methoxy-6-morpholino-1,3,5-triazin-2-yl)phenyl)urea)-N-(2-ethylamino)ethylbenzamide by resazurin dye based fluorescence microplate reader analysis; format: functional
[29] = tested on: JeKo-1; test: Synergistic antiproliferative activity against human JeKo-1 cells assessed as combination index at 1.25 uM incubated for 48 hrs in presence of 1.25 uM 4-(3-(4-(4-methoxy-6-morpholino-1,3,5-triazin-2-yl)phenyl)urea)-N-(2-ethylamino)ethylbenzamide by resazurin dye based fluorescence microplate reader analysis; format: functional
[30] = tested on: JeKo-1; test: Synergistic antiproliferative activity against human JeKo-1 cells assessed as combination index at 0.625 uM incubated for 48 hrs in presence of 1.25 uM 4-(3-(4-(4-methoxy-6-morpholino-1,3,5-triazin-2-yl)phenyl)urea)-N-(2-ethylamino)ethylbenzamide by resazurin dye based fluorescence microplate reader analysis; format: functional
[31] = tested on: JeKo-1; test: Synergistic antiproliferative activity against human JeKo-1 cells assessed as combination index at 5 uM incubated for 48 hrs in presence of 0.625 uM 4-(3-(4-(4-methoxy-6-morpholino-1,3,5-triazin-2-yl)phenyl)urea)-N-(2-ethylamino)ethylbenzamide by resazurin dye based fluorescence microplate reader analysis; format: functional
[32] = tested on: JeKo-1; test: Synergistic antiproliferative activity against human JeKo-1 cells assessed as combination index at 2.5 uM incubated for 48 hrs in presence of 0.625 uM 4-(3-(4-(4-methoxy-6-morpholino-1,3,5-triazin-2-yl)phenyl)urea)-N-(2-ethylamino)ethylbenzamide by resazurin dye based fluorescence microplate reader analysis; format: functional
[33] = tested on: JeKo-1; test: Synergistic antiproliferative activity against human JeKo-1 cells assessed as combination index at 1.25 uM incubated for 48 hrs in presence of 0.625 uM 4-(3-(4-(4-methoxy-6-morpholino-1,3,5-triazin-2-yl)phenyl)urea)-N-(2-ethylamino)ethylbenzamide by resazurin dye based fluorescence microplate reader analysis; format: functional
[34] = tested on: JeKo-1; test: Synergistic antiproliferative activity against human JeKo-1 cells assessed as combination index at 0.625 uM incubated for 48 hrs in presence of 0.625 uM 4-(3-(4-(4-methoxy-6-morpholino-1,3,5-triazin-2-yl)phenyl)urea)-N-(2-ethylamino)ethylbenzamide by resazurin dye based fluorescence microplate reader analysis; format: functional

Sequence of Phosphatidylinositol 4,5-bisphosphate 3-kinase catalytic subunit alpha isoform (P42336 whole entry, canonical isoform): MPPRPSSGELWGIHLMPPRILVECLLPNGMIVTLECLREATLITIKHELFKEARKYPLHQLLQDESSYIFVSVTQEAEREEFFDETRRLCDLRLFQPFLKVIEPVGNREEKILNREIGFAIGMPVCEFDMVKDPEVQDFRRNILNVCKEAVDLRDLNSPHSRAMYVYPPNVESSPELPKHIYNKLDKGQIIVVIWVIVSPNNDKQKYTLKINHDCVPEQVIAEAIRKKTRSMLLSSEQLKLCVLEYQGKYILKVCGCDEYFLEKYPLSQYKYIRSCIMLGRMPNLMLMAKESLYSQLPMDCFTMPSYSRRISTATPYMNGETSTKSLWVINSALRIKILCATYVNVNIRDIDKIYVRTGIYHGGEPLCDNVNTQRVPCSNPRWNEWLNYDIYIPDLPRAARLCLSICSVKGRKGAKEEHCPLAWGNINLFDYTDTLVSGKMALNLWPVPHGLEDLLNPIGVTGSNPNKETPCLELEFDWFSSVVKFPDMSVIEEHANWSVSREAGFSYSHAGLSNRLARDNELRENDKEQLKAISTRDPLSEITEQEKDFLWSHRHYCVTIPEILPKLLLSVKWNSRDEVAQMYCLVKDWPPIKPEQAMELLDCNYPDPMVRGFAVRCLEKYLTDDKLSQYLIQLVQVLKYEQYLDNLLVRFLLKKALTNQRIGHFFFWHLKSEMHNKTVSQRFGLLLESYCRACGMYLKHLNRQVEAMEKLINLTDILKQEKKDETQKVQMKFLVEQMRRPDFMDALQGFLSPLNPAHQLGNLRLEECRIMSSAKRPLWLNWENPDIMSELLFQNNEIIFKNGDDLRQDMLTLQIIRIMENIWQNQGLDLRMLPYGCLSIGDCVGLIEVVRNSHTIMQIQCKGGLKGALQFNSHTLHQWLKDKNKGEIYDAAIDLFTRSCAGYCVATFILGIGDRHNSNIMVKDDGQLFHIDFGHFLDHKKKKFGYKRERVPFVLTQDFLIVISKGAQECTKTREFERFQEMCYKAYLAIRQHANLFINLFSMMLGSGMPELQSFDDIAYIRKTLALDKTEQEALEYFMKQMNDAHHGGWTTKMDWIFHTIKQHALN

CC(=O)Nc1ccc(C(=O)Nc2ccccc2N)cc1 [TACEDINALINE]
IC50 [1]: > 10 µM
IC50 [2]: 4.7 µM
IC50 [3]: 1.9 µM
IC50 [4]: 2.8 µM
IC50 [5]: 10.9 µM
IC50 at 48 h [6]: > 100 µM
viability at 0.25 µM [7]: 92.6%
Activity [8]: 1.46%
Activity [9]: 5.6%
Activity [10]: 0.37%
viability at 0.5 µM [11]: 92.4%
Activity [12]: 1.48%
Activity [13]: 5.62%
Activity [14]: 0.51%
viability at 1 µM [15]: 92.4%
Activity [16]: 2.3%
Activity [17]: 4.73%
Activity [18]: 0.59%
CI [19]: 0.191
CI [20]: 0.119
CI [21]: 0.191
CI [22]: 0.43
CI [23]: 0.221
CI [24]: 0.274
CI [25]: 0.342
CI [26]: 0.475
CI [27]: 0.39
CI [28]: 0.443
CI [29]: 0.431
CI [30]: 0.575
CI [31]: 0.61
CI [32]: 0.592
CI [33]: 0.629
CI [34]: 0.711
